Source: patent publication US20100035866A1, “NOVEL SUBSTITUTED-1, 1-DIOXO-BENZO[1,2,4]THIADIAZIN-3ONES, PREPARATION METHOD THEREOF, AND PHARMACEUTICAL COMPOSITION CONTAINING THE SAME” (KOREA RESEARCH INSTITUTE OF CHEMICAL TECHNOLOGY, priority 2006, published 2010)

What was measured:
[1] = target: T1, 5-HT1a (Homo sapiens, UniProt P08908); experiment: Radioligand binding, 5-HT receptor family: 5-HT1a ([3H]8-OH-DPAT); settings: CHO-K1 human recombinant receptor, [3H]8-OH-DPAT 0.5 nM; read-out: Binding affinity, IC50 (nM), 5-HT1a
T1 construct: purchased Euroscreen/BioSignal Packard Inc
T1 sequence (P08908 1-422): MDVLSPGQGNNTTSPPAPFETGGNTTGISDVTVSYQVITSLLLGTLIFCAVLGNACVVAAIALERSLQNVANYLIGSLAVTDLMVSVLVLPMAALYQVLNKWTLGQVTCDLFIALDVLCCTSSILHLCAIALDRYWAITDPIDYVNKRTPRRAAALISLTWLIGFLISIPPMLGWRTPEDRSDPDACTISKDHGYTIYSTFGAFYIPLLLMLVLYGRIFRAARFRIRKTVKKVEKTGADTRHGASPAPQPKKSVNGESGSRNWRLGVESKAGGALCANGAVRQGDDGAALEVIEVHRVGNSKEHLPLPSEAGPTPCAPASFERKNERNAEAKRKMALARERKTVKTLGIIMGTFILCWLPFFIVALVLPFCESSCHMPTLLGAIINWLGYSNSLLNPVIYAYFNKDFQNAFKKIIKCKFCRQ

[2] = target: T2, 5-HT2a (Homo sapiens, UniProt P28223); experiment: Radioligand binding, 5-HT receptor family: 5-HT2a ([3H]Ketanserin); settings: CHO-K1 human recombinant receptor, [3H]Ketanserin 1 nM; read-out: Binding affinity, IC50 (nM), 5-HT2a
T2 construct: purchased Euroscreen/BioSignal Packard Inc
T2 sequence (P28223 whole entry): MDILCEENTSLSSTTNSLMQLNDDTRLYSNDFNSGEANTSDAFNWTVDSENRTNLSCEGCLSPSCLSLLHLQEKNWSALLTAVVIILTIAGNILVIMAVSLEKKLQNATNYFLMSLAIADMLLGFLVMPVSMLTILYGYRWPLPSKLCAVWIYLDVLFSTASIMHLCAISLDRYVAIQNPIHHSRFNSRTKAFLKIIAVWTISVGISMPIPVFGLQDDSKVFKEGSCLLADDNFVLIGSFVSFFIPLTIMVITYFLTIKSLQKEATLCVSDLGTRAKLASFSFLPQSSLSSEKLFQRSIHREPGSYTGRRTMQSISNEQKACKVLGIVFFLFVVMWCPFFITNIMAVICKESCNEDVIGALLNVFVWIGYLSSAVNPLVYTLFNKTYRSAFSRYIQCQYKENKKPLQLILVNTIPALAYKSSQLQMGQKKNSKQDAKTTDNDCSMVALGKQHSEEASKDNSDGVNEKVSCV

[3] = target: T3, 5-HT2c (Homo sapiens, UniProt P28335); experiment: Radioligand binding, 5-HT receptor family: 5-HT2c ([3H]Mesulergine); settings: CHO-K1 human recombinant receptor, [3H]Mesulergine 1 nM; read-out: Binding affinity, IC50 (nM), 5-HT2c
T3 construct: purchased Euroscreen/BioSignal Packard Inc
T3 sequence (P28335 33-458): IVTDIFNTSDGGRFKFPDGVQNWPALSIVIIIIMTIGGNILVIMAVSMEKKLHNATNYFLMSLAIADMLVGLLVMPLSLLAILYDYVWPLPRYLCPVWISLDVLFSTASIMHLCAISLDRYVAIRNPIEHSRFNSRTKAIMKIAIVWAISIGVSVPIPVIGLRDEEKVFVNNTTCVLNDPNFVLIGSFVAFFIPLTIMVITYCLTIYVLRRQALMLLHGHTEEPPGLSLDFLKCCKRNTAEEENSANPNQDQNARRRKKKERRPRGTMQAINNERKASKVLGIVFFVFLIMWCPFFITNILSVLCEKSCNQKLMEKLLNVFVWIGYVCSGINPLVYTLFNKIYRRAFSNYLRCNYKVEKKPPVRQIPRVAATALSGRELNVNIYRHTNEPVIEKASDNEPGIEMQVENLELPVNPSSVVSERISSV

[4] = target: T4, 5-HT7 (Homo sapiens, UniProt P34969); experiment: Radioligand binding, 5-HT receptor family: 5-HT7 ([3H]LSD); settings: CHO-K1 human recombinant receptor, [3H]LSD 3 nM; read-out: Binding affinity, IC50 (nM), 5-HT7
T4 construct: purchased Euroscreen/BioSignal Packard Inc
T4 sequence (P34969 whole entry): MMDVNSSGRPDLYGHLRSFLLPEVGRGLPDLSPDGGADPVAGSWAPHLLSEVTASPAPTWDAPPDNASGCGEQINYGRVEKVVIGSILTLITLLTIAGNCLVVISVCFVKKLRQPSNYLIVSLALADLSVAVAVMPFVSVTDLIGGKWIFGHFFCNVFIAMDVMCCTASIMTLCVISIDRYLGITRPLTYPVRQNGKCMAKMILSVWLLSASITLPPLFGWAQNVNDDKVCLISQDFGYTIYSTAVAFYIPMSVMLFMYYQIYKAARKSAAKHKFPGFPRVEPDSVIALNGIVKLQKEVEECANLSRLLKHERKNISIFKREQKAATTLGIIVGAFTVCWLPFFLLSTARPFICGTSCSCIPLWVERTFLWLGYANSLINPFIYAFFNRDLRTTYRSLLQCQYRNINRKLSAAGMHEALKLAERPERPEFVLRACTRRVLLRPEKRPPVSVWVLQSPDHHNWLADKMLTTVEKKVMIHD
Description: Radioligand bindings were performed according to the test method provided by the supplier of receptor membrane (Euroscreen/BioSignal Packard Inc.). The detailed assay conditions and the results were shown in the following Table 3 and Table 4, respectively.

[5] = target: D1 (Homo sapiens, UniProt P21728); experiment: Dopamine receptor family binding: D1; settings: read-out: Binding affinity, IC50 (nM), D1
Sequence of D1 (P21728 whole entry): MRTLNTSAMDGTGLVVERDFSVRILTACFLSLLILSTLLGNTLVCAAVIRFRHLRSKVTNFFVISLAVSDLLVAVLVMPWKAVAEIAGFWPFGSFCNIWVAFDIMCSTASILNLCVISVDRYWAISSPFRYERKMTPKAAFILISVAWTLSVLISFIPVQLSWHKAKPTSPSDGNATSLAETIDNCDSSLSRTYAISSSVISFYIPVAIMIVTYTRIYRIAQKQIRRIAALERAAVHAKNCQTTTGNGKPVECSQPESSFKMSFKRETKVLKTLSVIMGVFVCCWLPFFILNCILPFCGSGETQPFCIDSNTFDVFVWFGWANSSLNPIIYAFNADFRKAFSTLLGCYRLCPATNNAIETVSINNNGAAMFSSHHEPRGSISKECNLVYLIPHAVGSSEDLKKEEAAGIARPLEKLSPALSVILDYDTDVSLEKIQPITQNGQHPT

[6] = target: T5, hD2L receptor (Homo sapiens, UniProt P14416); experiment: Dopamine receptor family binding: D2 ([3H]spiperone); settings: [3H]spiperone 1 nM; read-out: Binding affinity, IC50 (nM), D2
T5 construct: purchased BioSignal Packard Inc., Montreal, Canada
T5 sequence (P14416 whole entry): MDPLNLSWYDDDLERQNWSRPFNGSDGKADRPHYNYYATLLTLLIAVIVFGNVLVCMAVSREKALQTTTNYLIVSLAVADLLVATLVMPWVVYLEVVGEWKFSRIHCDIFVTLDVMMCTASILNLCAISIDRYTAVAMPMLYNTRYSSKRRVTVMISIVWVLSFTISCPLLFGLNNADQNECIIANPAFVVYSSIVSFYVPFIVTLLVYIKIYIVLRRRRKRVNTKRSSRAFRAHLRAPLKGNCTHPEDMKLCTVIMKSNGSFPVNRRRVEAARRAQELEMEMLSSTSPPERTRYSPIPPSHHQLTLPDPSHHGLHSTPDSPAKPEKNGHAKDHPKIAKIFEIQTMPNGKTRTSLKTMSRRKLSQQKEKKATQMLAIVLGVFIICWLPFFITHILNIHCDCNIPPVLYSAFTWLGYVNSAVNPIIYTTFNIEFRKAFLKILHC
Description: (§1) 2-2: Binding Assays of Dopamine Receptor Family
(§2) The radioligands used were [^3H]spiperone (for hD2L and hD3 receptors, 1 nM) and [^3H] YM-09151-2 (for hD4.2 receptor, 0.06 nM). Radioligand bindings were performed by the protocols provided by the supplier of receptor membranes (BioSignal Packard Inc., Montreal, Canada). Briefly, the buffer used in D2 or D3 receptor binding assay was 50 mM Tris-HCl (pH 7.4), 10 mM MgCl2, 1 mM EDTA, or 50 mM Tris-HCl (pH 7.4), 5 mM MgCl2 5 mM EDTA, 5 mM KCl, 1.5 mM CaCl2, 120 mM NaCl, respectively. In [^3H] YM-09151-2 receptor binding assays, the buffer containing 50 mM Tris-HCl (pH 7.4), 5 mM MgCl2, 5 mM EDTA, 5 mM KCl and 1.5 mM CaCl2 was used. […] Competition binding studies were carried out with 7-8 concentrations of the test compound run in duplicate tubes, and isotherms from three assays were calculated by computerized nonlinear regression analysis (GraphPad Prism Program, San Diego, […]) to yield median inhibitory concentration (IC50) values.

[7] = target: T6, hD3 receptor (Homo sapiens, UniProt P35462); experiment: Dopamine receptor family binding: D3 ([3H]spiperone); settings: [3H]spiperone 1 nM; read-out: Binding affinity, IC50 (nM), D3
T6 construct: purchased BioSignal Packard Inc., Montreal, Canada
T6 sequence (P35462 whole entry): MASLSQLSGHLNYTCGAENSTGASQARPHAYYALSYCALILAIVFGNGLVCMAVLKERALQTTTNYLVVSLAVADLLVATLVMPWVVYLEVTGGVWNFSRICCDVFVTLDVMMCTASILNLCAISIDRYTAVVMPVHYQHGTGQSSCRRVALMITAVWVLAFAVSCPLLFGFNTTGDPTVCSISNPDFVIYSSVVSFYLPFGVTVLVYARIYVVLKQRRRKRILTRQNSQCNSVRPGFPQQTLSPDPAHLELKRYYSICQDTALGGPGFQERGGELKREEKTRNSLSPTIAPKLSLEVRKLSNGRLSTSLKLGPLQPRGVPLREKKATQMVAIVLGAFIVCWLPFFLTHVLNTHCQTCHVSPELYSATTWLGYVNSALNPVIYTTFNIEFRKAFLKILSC

[8] = target: T7, hD4.2 receptor (Homo sapiens, UniProt P21917, DEL265-296); experiment: Dopamine receptor family binding: D4 ([3H]YM-09151-2); settings: [3H]YM-09151-2 0.06 nM; read-out: Binding affinity, IC50 (nM), D4
T7 construct: purchased BioSignal Packard Inc., Montreal, Canada
T7 sequence (P21917 with tags, fused parts or gaps DEL265-296): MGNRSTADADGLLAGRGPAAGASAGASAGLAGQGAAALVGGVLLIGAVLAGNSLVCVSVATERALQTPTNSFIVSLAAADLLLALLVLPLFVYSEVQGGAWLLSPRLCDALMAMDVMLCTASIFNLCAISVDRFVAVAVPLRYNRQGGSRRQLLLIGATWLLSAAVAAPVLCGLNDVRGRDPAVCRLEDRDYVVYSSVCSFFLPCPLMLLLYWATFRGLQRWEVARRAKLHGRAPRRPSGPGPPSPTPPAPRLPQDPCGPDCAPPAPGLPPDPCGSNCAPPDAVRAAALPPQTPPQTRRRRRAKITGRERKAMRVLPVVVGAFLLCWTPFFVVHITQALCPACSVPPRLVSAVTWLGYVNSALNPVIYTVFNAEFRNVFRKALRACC
Description: as §1, §2

[9] = test system: mice; experiment: Rotarod deficit; settings: mouse, in vivo
Description: The mouse was placed on a 1 inch diameter knurled plastic rod rotating at 6 rpm (Ugo-Basile, Milano, Italy), and the rotarod deficit (%) was obtained by counting the number of animals fallen from the rotating rod within 1 min (Dunham et al., 1957) at 30, 60, 90 and 120 min after the injection of test compound.

[10] = target: Human serotonin 5-HT6 receptor (Homo sapiens, UniProt P50406); experiment: [3H]LSD binding assay on cloned 5-HT6 receptor; settings: IC50 (nM)
Sequence of Human serotonin 5-HT6 receptor (P50406 whole entry): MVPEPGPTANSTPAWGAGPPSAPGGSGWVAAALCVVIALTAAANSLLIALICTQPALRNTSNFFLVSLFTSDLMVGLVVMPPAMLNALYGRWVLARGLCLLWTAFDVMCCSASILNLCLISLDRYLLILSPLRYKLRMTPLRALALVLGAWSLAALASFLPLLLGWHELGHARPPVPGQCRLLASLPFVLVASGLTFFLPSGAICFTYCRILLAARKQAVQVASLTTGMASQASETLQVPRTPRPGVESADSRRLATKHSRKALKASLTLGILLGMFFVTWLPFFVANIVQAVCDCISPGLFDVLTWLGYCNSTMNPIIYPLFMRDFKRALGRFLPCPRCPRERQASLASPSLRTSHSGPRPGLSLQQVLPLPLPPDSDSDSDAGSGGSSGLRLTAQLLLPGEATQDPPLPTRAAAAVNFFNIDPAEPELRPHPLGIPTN

[11] = test system: rats; experiment: Apomorphine-induced disruption of prepulse inhibition (PPI) of acoustic startle; settings: for effect on PPI of compound alone vs vehicle control: rats, 2.5, 5, 10 & 20 mg/kg, without apomorphine; for effect on PPI of compound alone vs vehicle control / reversal of disruption of PPI by apomorphine: i.p.; for mean startle amplitude vs apomorphine control group / reversal of disruption of PPI by apomorphine: rats; for mean startle amplitude vs apomorphine control group: administered 30 min before apomorphine; for reversal of disruption of PPI by apomorphine: pretreatment i.p. 30 min before apomorphine 2 mg/kg
[12] = test system: HeLa cells transfected with the human 5-HT6 receptor; experiment: Cytotoxicity in HeLa cells of the cAMP assay; type: cell-based; settings: at the concentrations tested (0.001-10 μM)
[13] = target: T8, 5-HT6 receptors (Homo sapiens, UniProt P50406); experiment: Adenylyl cyclase activity (cAMP accumulation) in HeLa cells transfected with human 5-HT6 receptor
T8 sequence (P50406 whole entry): as above

[14] = target: T8, 5-HT6 receptors; settings: human 5-HT6 receptors, Glennon et al.; cited from earlier work
[15] = test system: rat; settings: cited from earlier work; for anticonvulsant activity: earlier finding
[16] = test system: rats; settings: cited from earlier work
[17] = test system: rats; settings: cited from earlier work; remark: listed apart in the source
[18] = frontal cortex and dorsal hippocampus; cited from earlier work
[19] = background art; cited from earlier work
[20] = target: T8, 5-HT6 receptors; settings: antipsychotics, Roth et al. 1994; cited from earlier work
[21] = Binding affinity, 5-HT6, Table 4
[22] = binding affinity to the 5-HT6 receptor, Table 2, 1.87 nM [3H]LSD, cloned human receptor membranes from Sf21 cells, 37° C. 60 min
[23] = HeLa, read-out: inhibition of 0.3 μM serotonin (5-HT)-induced increase in cAMP levels

Molecule `CN1CCN(c2cc(Cl)cc3c2S(=O)(=O)N(Cc2ccccc2)C(=O)N3Cc2ccccc2)CC1` [Example 1, 2,4-Dibenzyl-6-chloro-8-(4-methyl-piperazin-1-yl)-1,1-dioxo-1,4-dihydro-2H-1λ^6-benzo[1,2,4]thiadiazin-3-one] has an IC50 [1] of 997 nM, an IC50 [2] of 354 nM and an IC50 [3] of 785 nM. It also gave an IC50 [4] of 6580 nM, an IC50 [5] of 3050 nM and an IC50 [6] of 5810 nM. The IC50 [7] was 633 nM, the IC50 [8] was greater than 10000 nM and the “rotarod ataxia / rotarod deficit (in words)” value [9] was “did not show any rotarod ataxia”. The “median neurotoxic dose (TD50), rotarod” value ([9]; ip) was “more than 300 □/□”, the melting point was 100 to 101 °C and the IC50 [10, 21] was 1.9 nM. For the same molecule, the IC50 [10, 22] was 1.9 nM, the “effect on PPI of compound alone vs vehicle control” value [11] was “no significant effect” and the “mean startle amplitude vs apomorphine control group” value [11] was “no significant differences”. For the same molecule, the “reversal of disruption of PPI by apomorphine” value (shortened to “reversal of disruption of PPI”) [11] was “reversed significantly”.
For `O=C1N(Cc2ccccc2)c2cc(Cl)cc(N3CCNCC3)c2S(=O)(=O)N1Cc1ccccc1` [Example 44, 2,4-Dibenzyl-6-chloro-1,1-dioxo-8-piperazin-1-yl-1,4-dihydro-2H-1λ^6-benzo[1,2,4]thiadiazin-3-one], the IC50 [1] was 5400 nM, the IC50 [2] was 1160 nM and the IC50 [3] was 1880 nM. For the same molecule, the IC50 [4] was greater than 10000 nM, the IC50 [5] was 6390 nM and the IC50 [6] was 667 nM. The IC50 [7] was 1210 nM, the IC50 [8] was greater than 10000 nM and the cytotoxicity [12] was “did not show any cytotoxicity”. The “TD50 relative to effective doses obtained in the PPI test” value [9] was “about 8 times”, the “rotarod ataxia / rotarod deficit (in words)” value [9] was “moderate rotarod deficit” and the melting point was 108 to 109 °C. For the same molecule, the IC50 [10, 21] was 1 nM, the IC50 [10, 22] was 0.9 nM and the “effect on PPI of compound alone vs vehicle control” value [11] was “no significant effect”. For the same molecule, the “mean startle amplitude vs apomorphine control group” value [11] was “no significant differences”, the “reversal of disruption of PPI” value [11] was “reversed significantly” and the IC50 [13] was 67.8 nM. For the same molecule, the “5-HT-induced increase in cAMP level inhibited (in words)” value ([13]; FIG. 1) was “inhibited”, the inhibition at 0.001 µM [13, 23] was 0% and the inhibition at 0.01 µM [13, 23] was 8%. It also gave an inhibition at 0.1 µM [13, 23] of 63%, an inhibition at 1 µM [13, 23] of 100% and an inhibition at 10 µM [13, 23] of 100%.
In the case of `Cc1cc(C)cc(CCCN2C(=O)N(Cc3ccccc3)c3cc(Cl)cc(N4CCNCC4)c3S2(=O)=O)c1` [Example 66, 4-Benzyl-6-chloro-2-[3-(3,5-dimethyl-phenyl)-propyl]-1,1-dioxo-8-piperazin-1-yl-1,4-dihydro-2H-1λ^6-benzo[1,2,4]thiadiazin-3-one], the IC50 [1] is reported as 1840 nM, the IC50 [2] is reported as 710 nM and the IC50 [3] is reported as 498 nM. For the same molecule, the IC50 [4] was 4530 nM, the IC50 [5] was 1180 nM and the IC50 [6] was 1640 nM. It also gave an IC50 [7] of 488 nM, an IC50 [8] greater than 10000 nM and a melting point of 226 to 228 °C. It also gave an IC50 [10, 21] of 3.8 nM and an IC50 [10, 22] of 3.8 nM.
In the case of `COc1ccc2c(c1)c(CCN(C)C)cn2S(=O)(=O)c1ccccc1` [MS-245], the “pA2, antagonist” value [14] is listed as 8.88.
In the case of `CNc1cc(NS(=O)(=O)c2ccc(N)cc2)nc(NC)n1` [Ro 04-6790], the anticonvulsant activity [15] is listed as “possess anticonvulsant activity” and the food intake [16] is listed as “decreased food intake”.
In the case of `COc1ccc(NS(=O)(=O)c2sc3ccc(Cl)cc3c2C)cc1N1CCNCC1` [SB-271046, reference compound], the “retention of a previously learned task in water maze” value [17] is listed as “significant improvement”, the extracellular glutamate levels [18] is listed as “increased extracellular glutamate levels in frontal cortex and dorsal hippocampus by several fold” and the anticonvulsant activity [15] is listed as “possess anticonvulsant activity”. The “reversal of disruption of PPI” value [11] was “did not reverse”.
For `COc1ccc(S(=O)(=O)Nc2cc(Br)cc(F)c2Br)cc1N1CCNCC1` [SB-357134], the “bioavailability (in words)” value [19] is listed as “excellent oral bioavailability”, the “blood clearance (in words)” value [19] is listed as “low clearance rate” and the “retention of a previously learned task in water maze” value [17] is listed as “significant improvement”. The “seizure threshold (rat maximal electroseizure threshold)” value ([15]; oral administration) was “potent and dose-dependent increase”.
For `CN(C)CCCN1c2ccccc2Sc2ccc(Cl)cc21` [chlorpromazine], the “binding affinity at 5-HT6 receptors (in words)” value [20] is listed as “high affinity”.
In the case of `CN(C)CC/C=C1/c2ccccc2Sc2ccc(Cl)cc21` [chlorprothixene], the “binding affinity at 5-HT6 receptors (in words)” value [20] is given as “high affinity”.
